Measurements as given in patent US10947213B1 (Merck Patent GmbH, priority 2015, dated 2021).
Where a name gives a salt, the structure may show the parent alone.

target: T1, TLR7/NFKb HEK cells (Homo sapiens, UniProt Q9NYK1); experiment: HEK Cell Assay (TLR7/NFKb reporter, Steady-Glo luciferase readout); type: cell-based; settings: 30 min compound preincubation, then R*48 agonist for 5 hours, read-out: Potency
T1 construct: expressed in transfected cells; host or cells: HEK cells (TLR7/NFKb reporter line)
T1 sequence (Q9NYK1 27-1049): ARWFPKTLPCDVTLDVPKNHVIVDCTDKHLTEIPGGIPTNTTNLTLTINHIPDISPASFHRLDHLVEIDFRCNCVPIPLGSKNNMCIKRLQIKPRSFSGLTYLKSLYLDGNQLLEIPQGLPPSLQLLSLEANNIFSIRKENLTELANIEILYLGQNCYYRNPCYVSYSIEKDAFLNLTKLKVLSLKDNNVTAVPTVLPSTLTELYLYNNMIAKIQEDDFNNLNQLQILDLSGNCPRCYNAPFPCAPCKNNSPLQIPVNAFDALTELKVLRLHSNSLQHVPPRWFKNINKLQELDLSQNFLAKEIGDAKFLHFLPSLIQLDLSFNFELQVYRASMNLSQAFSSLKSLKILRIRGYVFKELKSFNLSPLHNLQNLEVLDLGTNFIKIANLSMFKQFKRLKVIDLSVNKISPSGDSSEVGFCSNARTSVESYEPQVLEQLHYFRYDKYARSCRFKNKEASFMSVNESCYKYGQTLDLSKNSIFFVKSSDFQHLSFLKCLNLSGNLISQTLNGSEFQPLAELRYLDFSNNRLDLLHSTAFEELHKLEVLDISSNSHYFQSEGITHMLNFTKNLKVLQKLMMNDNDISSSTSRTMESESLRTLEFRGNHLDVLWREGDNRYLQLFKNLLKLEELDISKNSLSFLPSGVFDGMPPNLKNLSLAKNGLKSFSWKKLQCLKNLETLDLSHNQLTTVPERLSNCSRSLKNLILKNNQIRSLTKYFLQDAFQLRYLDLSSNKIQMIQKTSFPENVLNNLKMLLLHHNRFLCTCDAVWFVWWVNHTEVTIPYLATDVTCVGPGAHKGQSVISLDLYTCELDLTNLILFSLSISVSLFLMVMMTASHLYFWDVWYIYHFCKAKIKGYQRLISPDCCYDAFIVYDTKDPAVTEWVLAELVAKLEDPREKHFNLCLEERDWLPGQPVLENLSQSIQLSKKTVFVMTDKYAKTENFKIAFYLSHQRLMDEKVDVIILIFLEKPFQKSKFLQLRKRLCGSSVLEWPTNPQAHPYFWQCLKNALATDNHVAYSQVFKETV
In short: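 Steady-Glo luminescence after 5 h stimulation with R*48 agonist, following 30 min compound preincubation. Assay run in HEK cells carrying a TLR7/NFKb luciferase reporter, plated at 5000 cells/well and grown 24 h at 37° C (10% CO2) before treatment.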

First: COC(C)C(=O)N[C@@H]1C[C@H](C)CN(c2ccc(C#N)c3nccnc23)C1 (single isomer, unassigned) [Compound 159]
Second: C[C@H]1C[C@@H](NC(=O)[C@@H](C)N)CN(c2ccc(C#N)c3nccnc23)C1 [Compound 24, (R)-2-amino-N-((3R,5S)-1-(8-cyanoquinoxalin-5-yl)-5-methylpiperidin-3-yl)propanamide]
The IC50 of the first is higher: 1000 to 10000 nM for the first, less than 1000 nM for the second. The second is the more potent here.

`CN(C)CC(=O)N[C@H]1C[C@@H](C(F)(F)F)CN(c2ccc(C#N)c3nccnc23)C1` (relative stereo) [Compound 222, cis-N-[1-(8-cyanoquinoxalin-5-yl)-5-(trifluoromethyl)piperidin-3-yl]-2-(dimethylamino)acetamide] and `C[C@H]1C[C@@H](NC(=O)CN(C)C)CN(c2ccc(C#N)c3nccnc23)C1` [Compound 32, N-((3R,5S)-1-(8-cyanoquinoxalin-5-yl)-5-methylpiperidin-3-yl)-2-(dimethylamino)acetamide] cannot be ordered by IC50: less than 1000 nM for the first, less than 1000 nM for the second.

Going from `Cc1ncc(N2C[C@@H](C)C[C@@H](NC(=O)CC3(N)CCCCC3)C2)c2cccnc12` [Compound 563, 2-(1-Amino-cyclohexyl)-N-[(3R,5S)-5-methyl-1-(8-methyl-[1,7]naphthyridin-5-yl)-piperidin-3-yl]-acetamide] to `Cc1ncc(N2C[C@@H](C)C[C@@H](NC(=O)CCC(=O)O)C2)c2cccnc12` [Compound 567, N-[(3R,5S)-5-Methyl-1-(8-methyl-[1,7]naphthyridin-5-yl)-piperidin-3-yl]-succinamic acid], the IC50 rises from less than 1000 nM to greater than 10000 nM.

`C[C@@H]1C[C@H](CN2CCC(N3CCOCC3)CC2)CN(c2ccc(C(F)(F)F)c3ncccc23)C1` (relative stereo) [Compound 535, cis-5-[3-Methyl-5-(4-morpholin-4-yl-piperidin-1-ylmethyl)-piperidin-1-yl]-8-trifluoromethyl-quinoline] and `C[C@@H]1C[C@H](C(=O)NCC2CCN(C)CC2)CN(c2ccc(C(F)(F)F)c3ncccc23)C1` (relative stereo) [Compound 547, cis-5-Methyl-1-(8-trifluoromethyl-quinolin-5-yl)-piperidine-3-carboxylic Acid (1-methyl-piperidin-4-ylmethyl)-amide] cannot be ordered by IC50: less than 1000 nM for the first, less than 1000 nM for the second.

First: CN(C)CC(=O)N[C@H]1C[C@@H](C(F)(F)F)CN(c2ccc(C#N)c3ncccc23)C1 (racemic) [Compound 426, cis-N-[1-(8-Cyano-quinolin-5-yl)-5-trifluoromethyl-piperidin-3-yl]-2-dimethylamino-acetamide]
Second: CC(C)[C@H](O)C(=O)NC1CC(C(F)(F)F)CN(c2ccc(C#N)c3ncccc23)C1 (single isomer, unassigned) [Compound 429]
The IC50 of the first is lower: less than 1000 nM for the first, greater than 10000 nM for the second.

`C[C@H]1C[C@@H](NC(=O)CC2CCCN(C)C2)CN(c2ccc(C(F)F)c3nccnc23)C1` (stereo partly drawn) [Compound 318, N-[(3R,5S)-1-[8-(difluoromethyl)quinoxalin-5-yl]-5-methylpiperidin-3-yl]-2-(1-methylpiperidin-3-yl)acetamide] and `C[C@H]1C[C@@H](NC(=O)CN2CCCN(C)CC2)CN(c2ccc(C(F)F)c3nccnc23)C1` [Compound 326, N-[(3R,5S)-1-[8-(difluoromethyl)quinoxalin-5-yl]-5-methylpiperidin-3-yl]-2-(4-methyl-1,4-diazepan-1-yl)acetamide] cannot be ordered by IC50: less than 1000 nM for the first, less than 1000 nM for the second.

First: CCC(C)CC(=O)N[C@@H]1C[C@H](C)CN(c2ccnc3nccnc23)C1 (single isomer, unassigned) [Compound 153]
Second: CCC(C)CC(=O)N[C@@H]1C[C@H](C)CN(c2ccc(C#N)c3nccnc23)C1 (single isomer, unassigned) [Compound 150]
The IC50 of the first is higher: 1000 to 10000 nM for the first, less than 1000 nM for the second. The second is the more potent here.

First: C[C@H]1C[C@@H](NC(=O)CNS(C)(=O)=O)CN(c2ccnc3nccnc23)C1 [Compound 141, 2-methanesulfonamido-N-[(3R,5S)-5-methyl-1-[pyrido[2,3-b]pyrazin-8-yl]piperidin-3-yl]acetamide]
Second: CC(C)C(=O)NC1CCN(C[C@H]2CN(c3ccnc4nccnc34)C[C@@H](C)O2)CC1 [Compound 61, N-(1-(((2S,6R)-6-methyl-4-(pyrido[2,3-b]pyrazin-8-yl)morpholin-2-yl)methyl)piperidin-4-yl)isobutyramide]
The IC50 of the first is higher: greater than 10000 nM for the first, 1000 to 10000 nM for the second. The second is the more potent here.

`CCN(CC)CC(=O)NCC1CCN(c2ccc(C#N)c3ncccc23)CC1` [Compound 398, N-[1-(8-Cyano-quinolin-5-yl)-piperidin-4-ylmethyl]-2-diethylamino-acetamide] and `CCN(CC)CCNC(=O)C1CCN(c2ccc(C#N)c3ncccc23)CC1` [Compound 407, 1-(8-Cyano-quinolin-5-yl)-piperidine-4-carboxylic acid (2-diethylamino-ethyl)-amide] cannot be ordered by IC50: less than 1000 nM for the first, less than 1000 nM for the second.

First: C[C@H]1C[C@@H](NC(=O)C2CC(F)(F)C2)CN(c2ccc(C#N)c3nccnc23)C1 [Compound 235, N-[(3R,5S)-1-(8-cyanoquinoxalin-5-yl)-5-methylpiperidin-3-yl]-3,3-difluorocyclobutane-1-carboxamide]
Second: CC(C(=O)N[C@@H]1C[C@H](C)CN(c2ccc(C#N)c3nccnc23)C1)N1CC(F)(F)C1 (stereo partly drawn) [Compound 273, N-[(3R,5S)-1-(8-cyanoquinoxalin-5-yl)-5-methylpiperidin-3-yl]-2-(3,3-difluoroazetidin-1-yl)propanamide]
The IC50 of the first is lower: less than 1000 nM for the first, 1000 to 10000 nM for the second. The first is the more potent here.

`CN1CCC(CNC(=O)C2CN(c3ccc(C#N)c4ncccc34)CC(F)(F)C2)CC1` (stereo not drawn) [Compound 531, 1-(8-Cyano-quinolin-5-yl)-5,5-difluoro-piperidine-3-carboxylic Acid (1-methyl-piperidin-4-ylmethyl)-amide] and `C[C@H]1C[C@@H](NC(=O)C2CCN(C)C2)CN(c2ccc(C(F)(F)F)c3ncccc23)C1` (stereo partly drawn) [Compound 248, 1-methyl-N-[(3R,5S)-5-methyl-1-[8-(trifluoromethyl)quinolin-5-yl]piperidin-3-yl]pyrrolidine-3-carboxamide] cannot be ordered by IC50: less than 1000 nM for the first, less than 1000 nM for the second.

First: OC1CCC(NC2CC(C(F)(F)F)CN(c3ccnc4nccnc34)C2)CC1 (single isomer, unassigned) [Compound 94, trans,cis-4-((1-(pyrido[2,3-b]pyrazin-8-yl)-5-(trifluoromethyl)piperidin-3-yl)amino)cyclohexanol]
Second: C[C@H]1C[C@@H](NC(=O)C2CC(F)(F)C2)CN(c2ccc(C(F)(F)F)c3ncccc23)C1 [Compound 247, 3,3-difluoro-N-[(3R,5S)-5-methyl-1-[8-(trifluoromethyl)quinolin-5-yl]piperidin-3-yl]cyclobutane-1-carboxamide]
The IC50 of the first is higher: greater than 10000 nM for the first, less than 1000 nM for the second.

Compared with `CC(C(=O)N[C@@H]1C[C@H](C)CN(c2ccc(C(F)F)c3ncccc23)C1)N1CC(F)(F)C1` (stereo partly drawn) [Compound 311, 2-(3,3-difluoroazetidin-1-yl)-N-[(3R,5S)-1-[8-(difluoromethyl)quinolin-5-yl]-5-methylpiperidin-3-yl]propanamide], `OC1CCC(NC2CC(C(F)(F)F)CN(c3ccnc4nccnc34)C2)CC1` (single isomer, unassigned) [Compound 93, cis,cis-4-((1-(pyrido[2,3-b]pyrazin-8-yl)-5-(trifluoromethyl)piperidin-3-yl)amino)cyclohexanol] is higher in IC50: 1000 to 10000 nM for the first, greater than 10000 nM for the second. The first is the more potent here.

`C[C@H]1C[C@@H](N)CN(c2ccc(C#N)c3nsnc23)C1` [Compound 552, 7-((3R,5S)-3-Amino-5-methyl-piperidin-1-yl)-benzo[1,2,5]thiadiazole-4-carbonitrile hydrochloride] gave an IC50 of less than 1000 nM.
